In US5232633A, “Sulfoethyl carbonate wetting agents and their use in detergent compositions” (priority 1992, dated 1993):
Where two headings read alike, the source gives them in different places.

Tests used:
zein = test system: zein; design: species or system maize
Experimental: Specifically, the lower the amount of zein protein dissolved, usually the milder a surfactant is. Conversely, the more zein dissolved, typically the more irritating the surfactant is. In order to test irritancy potential, a 1% solution of surfactant (30 mls) was added to 1.5 g zein and stirred at room temperature for 1 hr. Residual zein was collected and dried to constant weight. Differences between starting and residual weights were used to calculate % zein dissolved.

[1] = Hydrolytic stability at pH 9, 40° C. by reverse phase HPLC; assay type: physicochemical; settings: 5×10^-4 M in NaHCO3 buffer with 5% CH3CN, 500 µM
[2] = Foam height, Ross-Miles method; assay type: physicochemical; settings: 45° C., water with 120 ppm calcium hardness; for Foam Ht., 10 min Ht.: after 10 minutes
[3] = Critical micelle concentration by surface tension (Wilhemy plate method); assay type: physicochemical
Description: The CMC is defined as the concentration of a surfactant at which it begins to form micelles in solution rather than precipitate. Specifically, materials that contain both a hydrophobic group and a hydrophilic group, (such as surfactants), will tend to distort the structure of the solvent (i.e, water) they are in and, therefore, increase the free energy of the system. They therefore, concentrate at the surface, whereby orienting so that their hydrophobic groups are directed away from the solvent, the free energy of the solution is minimized. Another means of minimizing the free energy can be achieved by the aggregation of these surface-active molecules into clusters or micelles with their hydrophobic groups directed toward the interior of the cluster and their hydrophilic groups directed toward the solvent.
The value of the CMC is determined by surface tension measurements using the Wilhemy plate method. While not wishing to be bound by theory, it is believed that a low CMC is a measure of surface activity (i.e, lower CMC of one surfactant versus another indicates the surfactant with lower CMC is more surface active). In this regard, it is believed that lower CMC signifies that lesser amounts of a surfactant are required to provide the same surfactancy benefits as a surfactant with higher CMC.

[4] = Krafft point of 1% dispersion of surfactant in water; assay type: physicochemical; settings: for Krafft Pt.: 1% dispersion in water; for Krafft point (in words): compared with SLI
Experimental: The temperature at and above which surfactants begin to form micelles instead of precipitates is referred to as Krafft point (Tk) and at this temperature the solubility of an ionic surfactant becomes equal to its CMC.
Krafft point was measured by preparing a 1% dispersion of the surfactant in water. If the surfactant was soluble at room temperature, the solution was cooled to 0° C. […] If it precipitated out, the solution was slowly warmed with stirring in a water bath. The temperature at which the precipitate dissolved was determined to be the Krafft point.
If the Krafft point was above room temperature, the solution was first heated rapidly to dissolve all the surfactant. It was then cooled until precipitation occurred, and was then slowly warmed to determine the Krafft point described above.

[5] = Calcium ion sensitivity, modified Hart method; assay type: physicochemical; settings: for Ca + 2 Needed for Prec.: titration with calcium ion solution, visual cloudiness endpoint
Experimental: The surfactant solution was titrated with a calcium ion solution. The endpoint was determined by visual observation of the cloudiness of the surfactant solution.

[6] = 1% solution of surfactant (30 mls), 1.5 g zein, room temperature, 1 hr

Row | % Zein Solub. (zein; [6]) | Hydrolytic Stability, t 1/2 [1] | Foam Ht., 10 min Ht. [2] | Foam Ht., Initial Ht. [2] | CMC [3] | Krafft Pt. [4] | Ca + 2 Needed for Prec. [5] | SMILES | Krafft point (in words) [4] | % Zein Solub. (zein) | Calcium sensitivity (in words) ([5]; compared with non-carbonated isethionate (SLI))
1 | 51% | 286 h | 161 mm | 165 mm | 2.39 mM | 15 °C | 2000 ppm | CCCCCCCCCCCCOC(=O)OC(C)CS(=O)(=O)O (stereo not shown) [SIDC, Sodium 2-sulfoisopropyl dodecyl carbonate] | – | – | –
2 | 17% | – | 152 mm | 158 mm | – | – | – | CCCCCCCCCCCCOCCOCCOCCOCCOC(=O)OCCS(=O)(=O)O [SED(4EO)C, Sodium 2-sulfoethyl dodecyl (4EO) carbonate] | – | – | –
3 | 47% | 223 h | 160 mm | 162 mm | 3.7 to 4.0 mM | 0 °C | > 2700 ppm | CCCCCCCCCCC(C)OC(=O)OCCS(=O)(=O)O (stereo not shown) [SE2DC, Sodium 2-sulfoethyl 2-dodecylcarbonate] | – | – | –
4 | – | 24 h | negligible | negligible | 6.2 mM | 24 °C | 51 ppm | CCCCCCCCCCCC(=O)OCCS(=O)(=O)O [SLI, sodium lauroyl isethionate, reference compound] | – | – | –
5 | 49% | ≈ 70 Days | 149 mm | 156 mm | 2.6 to 2.8 mM | 30 °C | 2500 ppm | CCCCCCCCCCC(C)OC(=O)OC(C)CS(=O)(=O)O (stereo not shown) [SI2DC, Sodium 2-sulfoisopropyl 2-dodecyl carbonate] | higher | – | –
6 | 41% | 1030 h | 142 mm | 166 mm | 1.46 mM | 0 °C | 725 ppm | CCCCCCCCCCCCOC(=O)OC(CC)CS(=O)(=O)O (stereo not shown) [S2DBC, Sodium 2-(1-sulfo)butyl dodecyl carbonate] | – | – | –
7 | 25% | – | 160 mm | 165 mm | – | – | – | CCCCCCCCCCCCOCCOCCOC(=O)OCCS(=O)(=O)O [SED(2EO)C, Sodium 2-sulfoethyl dodecyl (2EO) carbonate] | – | – | –

Row | SMILES | % Zein Solub. (zein; [6]) | Hydrolytic Stability, t 1/2 [1] | Foam Ht., 10 min Ht. [2] | Foam Ht., Initial Ht. [2] | CMC [3] | Krafft Pt. [4] | Ca + 2 Needed for Prec. [5] | Krafft point (in words) [4] | % Zein Solub. (zein) | Calcium sensitivity (in words) ([5]; compared with non-carbonated isethionate (SLI))
8 | CCCCCCCCCCCCOC(=O)OCCS(=O)(=O)O.[Na] | – | 55.2 h | 149 mm | – | 2.52 mM | 24 °C | 150 ppm | same Krafft point as the SLI | 49% | greater calcium insensitivity than the ester SLI
